We go through one compound from patent US11311565B2, “Synergistic nutritional compositions for promoting axonal regeneration” (CELAGENEX RESEARCH (INDIA) PVT. LTD., priority 2020, dated 2022).

Holding throughout (format): in vivo, Swiss albino mice
Assay [1] concerns GAP-43. Put plainly: SCI animal study: fold increase in plasticity protein GAP-43. The note with it: animals subjected to SCI, 6 animals per group. The source says:
(§1) The purpose of this study is to evaluate the effect of the test substance in Swiss albino rats.
(§2) No. of animals: 30 Animals (5 groups of 6 animals each)
(§3) Group 1 is placebo, Group 2 was given a standard treatment of antithrombotic, antiepileptic, anti-inflammatory and steroid protocol (methylprednisolone) and Group 3, Group 4 and Group 5 served as test substance. Animals were subjected to SCI and outcome measures were monitored.

Assay [2] deals with BDNF. Put plainly: SCI animal study: fold increase in plasticity protein BDNF. The note with it: animals subjected to SCI, 6 animals per group.
Text: as §1, §2, §3

The subject of assay [3] is NGF. Put plainly: SCI animal study: fold increase in plasticity protein NGF. The note with it: animals subjected to SCI, 6 animals per group.
Text: as §1, §2, §3

The test system of assay [4] is NTF3. Briefly: SCI animal study: fold increase in plasticity protein NTF3. The note with it: animals subjected to SCI, 6 animals per group.
Text: as §1, §2, §3

In assay [5] the test system is animals subjected to SCI. Put plainly: SCI animal study: improvement of limb movements. The note with it: baseline is 1.
Text: as §1, §2, §3

In assay [6] the test system is axons crossing denervated side. Put plainly: SCI animal study: subjects with >1000 axons crossing denervated side. The note with it: animals subjected to SCI; % subjects.
Text: as §1, §2, §3
4. Subjects with >1000 axons crossing denervated side—as % subjects

For the compound `N=C(N)NCCCCN.O=S(=O)(O)O` [Test II, Agmatine Sulphate], in assay [1], the “No. of fold increase in plasticity proteins from baseline: GAP-43” value turned out to be 3.44 fold. Besides, the “No. of fold increase in plasticity proteins from baseline: BDNF” value in assay [2] is 2.44 fold. In assay [3], the “No. of fold increase in plasticity proteins from baseline: NGF” value amounted to 1.69 fold. Besides, the “No. of fold increase in plasticity proteins from baseline: NTF3” value in assay [4] is recorded as 1.17 fold. The “Percentage improvement of limb movements to baseline (Baseline as 1)” value in assay [5] is 0.34. In addition, the “percentage of subjects with >1000 axons crossing denervated side” value in assay [6] came out at 18%.
